Assay results reported in patent US20240158446A1, “CYCLIC COMPOUND HAVING SELECTIVE INHIBITORY ACTION ON KRAS OVER HRAS AND NRAS” (CHUGAI SEIYAKU KABUSHIKI KAISHA, priority 2021, published 2024).
pIC50, pKd: −log10 of the molar value. Read-outs that look alike come from different tables or passages of the source.

Assays:
[1] = system: human lung cancer strain NCI-H441;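 further: cell proliferation inhibition after four days measured by CellTiter-Glo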
[2] = target: GDP-bound HRAS wild-type protein (Homo sapiens, UniProt P01112); test: Binding to HRAS by surface plasmon resonance (SPR), Single Cycle Kinetics; details: for HRAS/KRAS (ratio of KD value for HRAS to KD value for KRAS): SPR, GDP-bound HRAS wild-type protein vs GDP-bound KRAS wild-type protein; for HRAS/KRAS (ratio of KD value with respect to GDP-bound HRAS wild-type protein to KD value with respect to KRAS): SPR KD ratio HRAS/KRAS, class symbols
[3] = target: GDP-bound KRAS wild-type protein (Homo sapiens, UniProt P01116); test: Binding to KRAS by surface plasmon resonance (SPR), Single Cycle Kinetics; details: GDP-bound KRAS wild-type protein, read-out: KRAS KD
[4] = target: GDP-bound NRAS wild-type protein (Homo sapiens, UniProt P01111); test: Binding to NRAS by surface plasmon resonance (SPR), Single Cycle Kinetics; details: for NRAS/KRAS (ratio of KD value for NRAS to KD value for KRAS): SPR, GDP-bound NRAS wild-type protein vs GDP-bound KRAS wild-type protein; for NRAS/KRAS (ratio of KD value with respect to GDP-bound NRAS wild-type protein to KD value with respect to KRAS): SPR KD ratio NRAS/KRAS, class symbols
[5] = SPR Single Cycle Kinetics, 1:1 binding model

Chain of GDP-bound NRAS wild-type protein (P01111 whole entry): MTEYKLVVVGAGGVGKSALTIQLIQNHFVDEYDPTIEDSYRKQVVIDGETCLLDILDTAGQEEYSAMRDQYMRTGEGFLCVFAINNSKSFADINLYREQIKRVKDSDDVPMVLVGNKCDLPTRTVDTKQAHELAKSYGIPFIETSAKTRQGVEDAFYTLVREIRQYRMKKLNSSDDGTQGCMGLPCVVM
Chain of GDP-bound HRAS wild-type protein (P01112 whole entry): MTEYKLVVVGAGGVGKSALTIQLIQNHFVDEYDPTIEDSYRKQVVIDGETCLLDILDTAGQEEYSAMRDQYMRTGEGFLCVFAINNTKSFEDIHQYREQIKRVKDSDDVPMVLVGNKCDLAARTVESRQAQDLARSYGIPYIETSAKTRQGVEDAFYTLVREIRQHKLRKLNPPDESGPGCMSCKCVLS
Chain of GDP-bound KRAS wild-type protein (P01116 whole entry): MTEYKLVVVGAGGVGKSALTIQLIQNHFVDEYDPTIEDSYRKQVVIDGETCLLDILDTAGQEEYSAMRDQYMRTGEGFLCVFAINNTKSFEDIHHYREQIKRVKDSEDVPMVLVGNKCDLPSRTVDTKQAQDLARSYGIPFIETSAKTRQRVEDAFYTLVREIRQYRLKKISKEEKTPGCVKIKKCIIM

| Structure (SMILES) | pIC50 [1] | HRAS/KRAS (ratio of KD value for HRAS to KD value for KRAS) [2] | pKd ([3]; SPR, Single Cycle Kinetics) | NRAS/KRAS (ratio of KD value for NRAS to KD value for KRAS) [4] | HRAS/KRAS (ratio of KD value with respect to GDP-bound HRAS wild-type protein to KD value with respect to KRAS) [2] | pKd [3, 5] | NRAS/KRAS (ratio of KD value with respect to GDP-bound NRAS wild-type protein to KD value with respect to KRAS) [4] |
| --- | --- | --- | --- | --- | --- | --- | --- |
| CCC(CC)[C@H]1C(=O)N(C)[C@H](C(=O)N(C)C)CC(=O)N(C)[C@@H](COC)C(=O)N[C@@H]([C@@H](C)CC)C(=O)N(C2CC2)CC(=O)N(C)[C@H]2C/C=C\CCN(C2=O)[C@@H](CC2CCCCC2)C(=O)N(C)CC(=O)N[C@@H](CCc2cc(F)c(C(F)(F)F)c(F)c2)C(=O)N2C[C@H](OC(C)C)C[C@H]2C(=O)NC2(CC(C)(C)C2)C(=O)N1C [PP2515] | 6.42 | A (a compound having 10 or more and less than 20 is denoted as A) | 8.29 | A (a compound having 10 or more and less than 20 is denoted as A) |  |  |  |
| CCC[C@H]1C(=O)N[C@@H](CC(C)C)C(=O)N(CC)CC(=O)N(C)[C@H]2C/C=C\CCN(C2=O)[C@@H](Cc2ccc(C)cc2)C(=O)N(C)CC(=O)N[C@@H](CCc2cc(F)c(C(F)(F)F)c(F)c2)C(=O)N2C[C@H](OCC)C[C@H]2C(=O)NC2(CC(C)(C)C2)C(=O)N(C)[C@@H](C2CCCC2)C(=O)N(C)[C@H](C(=O)N(C)C)CC(=O)N1C [PP2516] | 6.91 | B (a compound having 3 or more and less than 10 is denoted as B) | 8.54 | A (a compound having 10 or more and less than 20 is denoted as A) |  |  |  |
| CCC[C@H]1C(=O)N[C@@H](CC(C)C)C(=O)N(CC)CC(=O)N(C)[C@H]2C/C=C\CCN(C2=O)[C@@H](Cc2ccc(C)cc2)C(=O)N(C)CC(=O)N[C@@H](CCc2ccc(C(F)(F)F)c(OC)c2)C(=O)N2C[C@H](OCC)C[C@H]2C(=O)NC2(CC(C)(C)C2)C(=O)N(C)[C@@H](C2CCCC2)C(=O)N(C)[C@H](C(=O)N(C)C)CC(=O)N1C [PP2518] | 7.09 | A (a compound having 10 or more and less than 20 is denoted as A) | 8.48 | A (a compound having 10 or more and less than 20 is denoted as A) |  |  |  |
| CCC[C@H]1C(=O)N[C@@H](CC(C)C)C(=O)N(CCOC)CC(=O)N(C)[C@H]2C/C=C\CCN(C2=O)[C@@H](Cc2ccc(C)cc2)C(=O)N(C)CC(=O)N[C@@H](CCc2cc(F)c(C(F)(F)F)c(F)c2)C(=O)N2C[C@H](OCC)C[C@H]2C(=O)NC2(CC(C)(C)C2)C(=O)N(C)[C@@H](C2CCCC2)C(=O)N(C)[C@H](C(=O)N(C)C)CC(=O)N1C [PP2520] | 6.68 | A (a compound having 10 or more and less than 20 is denoted as A) | 8.48 | A (a compound having 10 or more and less than 20 is denoted as A) |  |  |  |
| CCC[C@H]1C(=O)N[C@@H]([C@@H](C)CC)C(=O)N(C2CC2)CC(=O)N(C)[C@H]2C/C=C\CCN(C2=O)[C@@H](CC2CCC(F)(F)CC2)C(=O)N(C)CC(=O)N[C@@H](CCc2ccc(Cl)c(Cl)c2)C(=O)N2C[C@H](OC(C)C)C[C@H]2C(=O)NC2(CC(C)(C)C2)C(=O)N(C)[C@@H](C2CCCC2)C(=O)N(C)[C@H](C(=O)N(C)C)CC(=O)N1C [PP2521] | 6.89 | A (a compound having 10 or more and less than 20 is denoted as A) | 8.55 | A (a compound having 10 or more and less than 20 is denoted as A) |  |  |  |
| CCC[C@H]1C(=O)N[C@@H](CC(C)C)C(=O)N(CCOC)CC(=O)N(C)[C@H]2C/C=C\CCN(C2=O)[C@@H](Cc2ccc(C)cc2)C(=O)N(C)CC(=O)N[C@@H](CCc2ccc(C(F)(F)F)c(OC)c2)C(=O)N2C[C@H](OCC)C[C@H]2C(=O)NC2(CC(C)(C)C2)C(=O)N(C)[C@@H](C2CCCC2)C(=O)N(C)[C@H](C(=O)N(C)C)CC(=O)N1C [PP2522] | 6.95 |  |  |  | B (a compound having 3 or more and less than 10 is denoted as B) | 8.49 | B (a compound having 3 or more and less than 10 is denoted as B) |
| CCC(CC)[C@H]1C(=O)N(C)[C@H](C(=O)N(C)C)CC(=O)N(C)[C@@H](COC)C(=O)N[C@@H]([C@@H](C)CC)C(=O)N(C2CC2)CC(=O)N(C)[C@H]2C/C=C\CCN(C2=O)[C@@H](CC2CCC(F)(F)CC2)C(=O)N(C)CC(=O)N[C@@H](CCc2cc(F)c(C(F)(F)F)c(F)c2)C(=O)N2C[C@H](OC(C)C)C[C@H]2C(=O)NC2(CC(C)(C)C2)C(=O)N1C [PP2523] | 7.04 |  |  |  | A (a compound having 10 or more and less than 20 is denoted as A) | 8.77 | A (a compound having 10 or more and less than 20 is denoted as A) |
